According to patent US20250186597A1, “TARGETED IMMUNE ACTIVATION WITH IL-18 IMMUNOCYTOKINES” (BRIGHT PEAK THERAPEUTICS AG, priority 2023, published 2025):

Columns and labels:
Assay type in all cases: cell-based, human
[1] = tested on: parental PD-1negative NK-92 cells; assay: IFN gamma secretion assay in parental PD-1 negative NK-92 cells (Example 17); settings: IFNγ secretion
Method: To show selectivity of the anti-PD1-IL18 immunocytokine (IC) for PD-1 positive cells, the NK-92 cell line was used to generate a PD-1 expressing cell line and furthermore, to measure IFN[…] release upon incubation with IL-18 variants and ICs.
On the day of experiment, parental PD-1negative and PD-1positive transduced cells were harvested and washed with PBS 1× and resuspended in medium (w/o IL-2) containing 1 ng/ml of recombinant human Interleukin-12 (SinoBiologicals, Cat #CT011-H08H). After counting, cells were seeded at 100 000 cells/well in a 384 well culture plate and incubated at 37° C./5% CO2. When indicated, cells were preincubated with anti-PD-1 antibody LZM-009 at 17 uM during 30 min at 37° C. […] The lowest concentration assessed was 0.8 fM.
After 16-20 h incubation at 37° C./5% CO2, 5 μl of supernatant were carefully transferred to a 384 microwell OptiPlate (Perkin Elmer; Cat #6007270) and Interferon-gamma (IFNγ) levels were measured using the Human IFNγ AlphaLISA Assay Kit (Perkin Elmer, Cat #AL217C). […] AlphaLISA signal was then measured on an Enspire plate reader (Perkin Elmer) using 680 and 615 nm as excitation and emission wavelengths respectively. Half maximal effective concentration (EC50) was calculated based on a variable slope, four parameter analysis using GraphPad PRISM software.

NK92 cells [2] = assay: IFN gamma secretion assay in NK92 cells (Example 10); settings: IFNγ secretion, 1 ng/ml IL-12
Method: The IFNγ-secretion stimulating activity of the unconjugated IL-18 variants and corresponding IL-18 immunocytokines was evaluated on NK92 cell line. The NK cell line NK-92 derived from a patient with lymphoma (ATCC, Cat #CRL-2407) was cultured in aMEM medium supplemented with 12.5% FCS, 12.5% horse serum (HS), 50 uM B-mercaptoEthanol, and 2 ng/ml of recombinant Human Interleukin-2 (IL-2).
On the day of experiment, cells were harvested and washed with aMEM medium without IL-2 and resuspended in medium (w/o IL-2) containing 1 ng/ml of recombinant human Interleukin-12 (SinoBiologicals, Cat #CT011-H08H). After counting, cells were seeded at 100 000 cells/well in a 384 well titer plate and incubated at 37° C./5% CO2. Sixteen 4-fold serial dilutions of IL-18 analytes were prepared in aMEM medium—1 ng/ml IL-12 and were added to the NK-92 cells. […]
(§1) After 16-20 h incubation at 37° C./5% CO2, 5 μl of supernatant were carefully transferred to a 384 microwells OPTIPlate (Perkin Elmer; Cat #6007270) and Interferon-gamma (IFNγ) levels measured using the Human IFNγ AlphaLISA Assay Kit (Perkin Elmer, Cat #AL217C). […] AlphaLisa signal was then measured on an Enspire plate reader (Perkin Elmer) using 680 and 615 nm as excitation and emission wavelengths respectively. Half maximal effective concentration (EC50) was calculated based on a variable slope, four parameter analysis using GraphPad PRISM software.

NK92 cells [3] = assay: Cellular IL-18 Binding Protein resistance assay in NK92 cells (Example 13); settings: IL-18BP-mediated inhibition of IFNγ secretion, IL-18 analyte 1 nM
Method: The NK cell line NK-92 derived from a patient with lymphoma (ATCC, Cat #CR^L-2407) was cultured in αMEM medium supplemented with 20% FCS-Glutamax, 25 μM B-mercaptoethanol, and 100 IU/ml of recombinant Human Interleukin-2 (IL-2). On the day of experiment, cells were harvested and washed with αMEM medium without IL-2. After counting, cells were seeded at 100 000 cells/well in a 384 well titer plate and incubated at 37° C./5% CO2. Sixteen 2-fold serial dilutions of Fc fused human IL-18 binding protein isoform a (IL-18BPa; R&D systems, Cat #119-BP) were prepared in αMEM medium—1 ng/ml IL-12 containing 2 nM of each IL-18 variants and were added to the NK-92 cells. Final IL-18 analytes concentration was 1 nM and final IL-18BPa concentrations ranged from to 566 nM down to 17 pM.
as §1, with “OPTIplate” for “OPTIPlate”, “inhibitory” for “effective”, “(IC50)” for “(EC50)”

EC50 (NK92 cells [2]): 0.374 nM | IC50 (NK92 cells [3]): 0.781 nM
Substance: SEQ ID NO: 1: Native sequence of human IL-18 (bioactive form) [reference compound]
EC50 [1]: 0.158 nM
